Data: PMC3076939 (Biochemistry, 2011)

How the values were obtained:
[1] = tested on: C-terminal processing of PHI(1–27); type: biochemical, mouse; details: PHI(1–27) with membrane lysate 1 mg/mL in PBS, 37 °C, 15 min, LC-MS; o-phenanthroline 1 mM, phosphoamidon 10 µM
DPP4 = DPP4 (Mus musculus, UniProt P28843); type: biochemical
plasma = details: cited from earlier work
human plasma = details: cited from earlier work

DPP4, sequence (P28843 whole entry): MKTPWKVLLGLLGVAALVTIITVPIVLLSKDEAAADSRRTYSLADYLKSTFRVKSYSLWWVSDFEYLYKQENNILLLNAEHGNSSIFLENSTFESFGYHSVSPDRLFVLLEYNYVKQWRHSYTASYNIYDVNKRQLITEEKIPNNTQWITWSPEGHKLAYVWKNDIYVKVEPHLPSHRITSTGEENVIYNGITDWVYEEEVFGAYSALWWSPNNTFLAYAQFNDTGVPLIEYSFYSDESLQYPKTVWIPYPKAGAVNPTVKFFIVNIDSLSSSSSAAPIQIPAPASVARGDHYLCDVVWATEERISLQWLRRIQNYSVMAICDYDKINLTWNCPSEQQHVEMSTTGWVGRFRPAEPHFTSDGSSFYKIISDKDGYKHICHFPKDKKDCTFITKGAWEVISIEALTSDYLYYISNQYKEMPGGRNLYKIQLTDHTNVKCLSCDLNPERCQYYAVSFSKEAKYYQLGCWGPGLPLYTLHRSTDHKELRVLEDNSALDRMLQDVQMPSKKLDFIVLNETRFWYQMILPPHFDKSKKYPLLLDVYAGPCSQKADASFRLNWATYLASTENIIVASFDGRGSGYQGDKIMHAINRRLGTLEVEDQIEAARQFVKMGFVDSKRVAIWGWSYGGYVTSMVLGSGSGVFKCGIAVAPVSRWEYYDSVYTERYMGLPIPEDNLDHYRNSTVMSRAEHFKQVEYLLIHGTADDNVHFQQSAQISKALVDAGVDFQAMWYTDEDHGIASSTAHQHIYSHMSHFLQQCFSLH

Row | Compound | effect on C-terminal processing of PHI(1–27) (PHI(1–22) production) [1] | other results
1 | c1cnc2c(c1)ccc1cccnc12 [1,10-phenanthroline] | reducing the production of PHI(1–22) | 
2 | CNC(=O)[C@H](Cc1c[nH]c2ccccc12)NC(=O)[C@@H](CC(=O)NO)CC(C)C [GM6001] | no impact | 
3 | O=S(=O)(F)Cc1ccccc1 [PMSF, phenylmethylsulfonyl fluoride] |  | inhibition of the production of PHI(3–27) (N-terminal processing) (DPP4): strongly inhibited the production of PHI(3–27)
4 | CC(C)C[C@H](NP(=O)(O)O[C@@H]1O[C@@H](C)[C@H](O)[C@@H](O)[C@H]1O)C(=O)N[C@@H](Cc1c[nH]c2ccccc12)C(=O)O [phosphoramidon] | no impact | 
5 | HAEGTFTSDVSSYLEGQAAKEFIAWLVKGRG-CONH2 |  | fragment found (plasma): GLP-1(9–36), major; fragment found (human plasma): GLP-1(9–36)
